Laboratory results as given in patent US20220289728A1, “MODULATORS OF TREX1” (Constellation Pharmaceuticals, Inc., priority 2019, published 2022).

What was measured:
[1] = tested on: HCT116 dual cells; assay: HCT116 Cell Assay (Lucia luciferase reporter of Type I interferon induction); format: cell-based, human; settings: pBR322/BstNI DNA transfection, Lucia luciferase at 48 h, relative to 10 uM compound 39
Source text: HCT116 dual cells (Invivogen, San Diego, Calif., USA) are derived from the human HCT116 colorectal carcinoma cell line. Cells have been selected for the stable integration of SEAP and Luciferase reporter genes, which expression is under the control of 5 tandem response elements for NF-KB/AP1 and STAT1/STAT2, respectively. The cell line was used to monitor Type I interferon induction and subsequent signaling by measuring the activity of the Lucia luciferase secreted in the culture medium.
HCT116 cells were plated in 96-well plate(s) at 40,000 cells/well in 100 uL DMEM supplemented with 10% FBS and 25 mM Hepes (pH 7.2-7.5). After overnight settling, cells were treated with TREX1i for 4 h (maximum DMSO fraction was 0.1%) before 1.25 ug/mL pBR322/BstNI restriction digest (New England Biolabs, Ipswich, Mass., USA) was transfected with Lipofectamine LTX (ThermoFisher, Grand Island, N.Y., USA), according to product manual recommendations. Briefly, Lipofectamine LTX (0.4 uL/well) was diluted in OptiMEM (5 uL/well). pBR322/BstNI (100 ng/well) was diluted in OptiMEM (5 uL/well) before Plus reagent (0.1 uL/100 ng DNA) was added. After 5 min incubation at room temperature, the DNA mixture was mixed dropwise with the diluted Lipofectamine LTX. After an additional 10 min incubation, the transfection mix (10 uL/well) was added to the cells. Cells were maintained at 37° C. for 48 h before monitoring the Lucia Luciferase activity from the cell culture medium. EC50 values were calculated by comparing the measured luminescence relative to 10 uM compound 39 (100% inhibition) and no inhibitor (0% inhibition) controls using non-linear least-squares four parameter fits in either Genedata Screener or GraphPad Prism (GraphPad Software, Inc.).

[2] = molecular target: T1, human TREX2 (residues M44-A279) (Homo sapiens, UniProt Q9BQ50); assay: TREX2 Biochemical Assay (fluorescence, dsDNA substrate degradation); settings: 2.5 nM TREX2, 60 nM dsDNA substrate, 25 minutes at room temperature
T1 construct: human TREX2 (residues M44-A279, expressed in E. coli); His-TEV (His tag with TEV site) (N); made in house; host or cells: E. coli
T1 sequence (Q9BQ50 44-279 isoform Q9BQ50-1): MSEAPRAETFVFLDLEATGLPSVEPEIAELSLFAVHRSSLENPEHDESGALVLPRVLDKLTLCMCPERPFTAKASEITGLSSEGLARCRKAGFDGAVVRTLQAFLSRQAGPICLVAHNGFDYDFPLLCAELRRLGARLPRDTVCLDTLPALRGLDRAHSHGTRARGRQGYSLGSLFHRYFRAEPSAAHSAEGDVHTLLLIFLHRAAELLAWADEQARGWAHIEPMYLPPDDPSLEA
Method: Degradation of the dsDNA liberates free fluorophore to produce a fluorescent signal. Specifically, 7.5 μL of N-terminally His-Tev tagged human TREX2 (residues M44-A279, expressed in E. coli and purified in house) in reaction buffer (50 mM Tris (pH 7.4), 150 mM NaCl, 2 mM DTT, 0.1 mg/mL BSA, 0.01% (v/v) Tween-20 and 100 mM MgCl2) was added to a 384-well Black ProxiPlate Plus (Perkin Elmer) which already contained compound (150 nL) at varying concentrations as a 10 point dose-response in DMSO. To this was added 7.5 μL of dsDNA substrate (Strand A: 5′ TEX615/GCT AGG CAG 3′; Strand B: 5′ CTG CCT AGC/IAbRQSp (IDT)) in reaction buffer. Final concentrations were 2.5 nM TREX2, 60 nM dsDNA substrate in reaction buffer with 1.0% DMSO (v/v). After 25 minutes at room temperature, reactions were quenched by the addition of 5 μL of stop buffer (same as reaction buffer plus 200 mM EDTA). Final concentrations in the quenched reaction mixture were […] TREX2, 45 nM DNA and 50 mM EDTA in a volume of 20 μL. After a 5-minute incubation at room temperature, plates were read in a laser sourced Envision (Perkin-Elmer), measuring fluorescence at 615 nm following excitation w/570 nm light. IC50 values were calculated by comparing the measured fluorescence at 615 nm ratio relative to control wells pre-quenched w/stop buffer (100% inhibition) and no inhibitor (0% inhibition) controls as using non-linear least square four parameter fits and either Genedata or GraphPad Prism (GraphPad Software, Inc.).

[3] = molecular target: T2, full length human TREX1 (Homo sapiens, UniProt Q9NSU2); assay: TREX1 Biochemical Assay (fluorescence, dsDNA substrate degradation); settings: 150 pM TREX1, 60 nM dsDNA substrate, 25 minutes at room temperature
T2 construct: N-terminally His-Tev tagged full length human TREX1; His-TEV (His tag with TEV site) (N); made in house; host or cells: E. coli
T2 sequence (Q9NSU2 1-314): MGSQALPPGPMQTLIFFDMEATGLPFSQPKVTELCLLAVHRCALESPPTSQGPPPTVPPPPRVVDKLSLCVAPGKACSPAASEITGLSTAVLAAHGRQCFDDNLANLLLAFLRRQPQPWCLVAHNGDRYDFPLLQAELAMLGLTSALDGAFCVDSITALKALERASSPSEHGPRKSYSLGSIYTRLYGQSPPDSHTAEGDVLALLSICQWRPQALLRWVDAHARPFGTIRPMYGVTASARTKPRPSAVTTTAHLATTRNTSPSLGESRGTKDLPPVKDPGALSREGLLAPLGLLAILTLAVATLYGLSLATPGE
Method: Degradation of the dsDNA liberates free fluorophore to produce a fluorescent signal. Specifically, 7.5 μL of N-terminally His-Tev tagged full length human TREX1 (expressed in E. coli and purified in house) in reaction buffer (50 mM Tris (pH 7.4), 150 mM NaCl, 2 mM DTT, 0.1 mg/mL BSA, 0.01% (v/v) Tween-20 and 100 mM MgCl2) was added to a 384-well Black ProxiPlate Plus (Perkin Elmer) which already contained compound (150 nL) at varying concentrations as a 10 point dose-response in DMSO. To this was added 7.5 μL of dsDNA substrate (Strand A: 5′ TEX615/GCT AGG CAG 3′; Strand B: 5′ CTG CCT AGC/IAbRQSp (Integrated DNA Technologies)) in reaction buffer. Final concentrations were 150 pM TREX1, 60 nM dsDNA substrate in reaction buffer with 1.0% DMSO (v/v). After 25 minutes at room temperature, reactions were quenched by the addition of 5 μL of stop buffer (same as reaction buffer plus 200 mM EDTA). Final concentrations in the quenched reaction were 112.5 pM TREX1, 45 nM DNA and 50 mM EDTA in a volume of 20 μL. After a 5-minute incubation at room temperature, plates were read in a laser sourced Envision (Perkin-Elmer), measuring fluorescence at 615 nm following excitation w/570 nm light. IC50 values were calculated by comparing the measured fluorescence at 615 nm ratio relative to control wells pre-quenched w/stop buffer (100% inhibition) and no inhibitor (0% inhibition) controls as using non-linear least square four parameter fits and either Genedata or GraphPad Prism (GraphPad Software, Inc.).

[4] = Homo sapiens, HCT-116, 4 h pre-treatment

SMILES	EC50 ([1]; 4 h pre-treatment)	IC50 [2]	IC50 [3]	EC50 [1, 4]
Cc1cc(C(c2ccccc2Cl)N(C)c2nc(C(=O)Nc3cnoc3)c(O)c(=O)n2C)ccn1 (single isomer, unassigned) [Example 90]	1000 to 10000 nM	< 1000 nM	< 100 nM	–
CN(c1nc(C(=O)Nc2cnoc2)c(O)c(=O)n1C)C(c1ccccc1)C1CCOCC1 (single isomer, unassigned) [Example 45]	–	1000 to 10000 nM	< 100 nM	1000 to 10000 nM
CN(Cc1ccccc1)c1nc(C(=O)Nc2cnoc2)c(O)c(=O)n1C [Example 2]	–	1000 to 10000 nM	< 100 nM	1000 to 10000 nM
CCN(Cc1ccccc1)c1nc(C(=O)Nc2cnoc2)c(O)c(=O)n1C [Example 13, 2-(benzyl(ethyl)amino)-5-hydroxy-N-(isoxazol-4-yl)-1-methyl-6-oxo-1,6-dihydropyrimidine-4-carboxamide]	–	1000 to 10000 nM	< 100 nM	10000 to 100000 nM
CN(c1nc(C(=O)Nc2cnoc2)c(O)c(=O)n1C)C(c1ccccc1)c1ncccc1Cl (single isomer, unassigned) [Example 53]	–	< 1000 nM	< 100 nM	< 1000 nM
Cc1cc(C(c2ccccc2Cl)N(C)c2nc(C(=O)Nc3cnoc3)c(O)c(=O)n2C)ccn1 (single isomer, unassigned) [Example 89]	–	< 1000 nM	< 100 nM	< 1000 nM
CCN(c1nc(C(=O)Nc2cnoc2)c(O)c(=O)n1C)C(c1ccccc1)c1ccccc1Cl (single isomer, unassigned) [Example 91]	–	< 1000 nM	< 100 nM	1000 to 10000 nM
Cc1nn(C)cc1-c1cncc(CN(C)c2nc(C(=O)Nc3cnoc3)c(O)c(=O)n2C)n1 [Example 79]	–	1000 to 10000 nM	< 100 nM	10000 to 100000 nM
CN(Cc1ccc(-c2cnn(C)c2)cc1)c1nc(C(=O)Nc2cnoc2)c(O)c(=O)n1C [Example 25]	–	1000 to 10000 nM	< 100 nM	10000 to 100000 nM
CN(c1nc(C(=O)Nc2cnoc2)c(O)c(=O)n1C)C(c1ccccc1)c1ccccc1C#N (single isomer, unassigned) [Example 85]	–	< 1000 nM	< 100 nM	< 1000 nM
CN(c1nc(C(=O)Nc2cnoc2)c(O)c(=O)n1C)C(c1ccccc1)c1ccccc1C(F)(F)F (single isomer, unassigned) [Example 84]	< 1000 nM	< 1000 nM	< 100 nM	–
CN(c1nc(C(=O)Nc2cnoc2)c(O)c(=O)n1C)C(c1ccccc1)c1ccccn1 (single isomer, unassigned) [Example 41]	–	< 1000 nM	< 100 nM	< 1000 nM
CN(Cc1cccc(-c2cnn(C)c2)c1)c1nc(C(=O)Nc2cnoc2)c(O)c(=O)n1C [Example 19]	–	1000 to 10000 nM	< 100 nM	10000 to 100000 nM
Cc1ccc(C(c2ccccc2)N(C)c2nc(C(=O)Nc3cnoc3)c(O)c(=O)n2C)cn1 (single isomer, unassigned) [Example 44]	< 1000 nM	< 1000 nM	< 100 nM	–
CN(c1nc(C(=O)Nc2cnoc2)c(O)c(=O)n1C)C(c1ccccc1)c1ncccc1Cl (single isomer, unassigned) [Example 54]	< 1000 nM	< 1000 nM	< 100 nM	–
CN(c1nc(C(=O)Nc2cnoc2)c(O)c(=O)n1C)C(c1ccccc1)c1ccccc1Cl (single isomer, unassigned) [Example 40]	< 1000 nM	< 1000 nM	< 100 nM	–
CN(c1nc(C(=O)Nc2cnoc2)c(O)c(=O)n1C)C(c1ccccc1)c1ccccc1C(F)(F)F (single isomer, unassigned) [Example 83]	–	< 1000 nM	< 100 nM	< 1000 nM
CN(Cc1cccc2c1cnn2C)c1nc(C(=O)Nc2cnoc2)c(O)c(=O)n1C [Example 31]	–	1000 to 10000 nM	< 100 nM	1000 to 10000 nM
Cc1nn(C)cc1-c1cnc(CN(C)c2nc(C(=O)Nc3cnoc3)c(O)c(=O)n2C)cn1 [Example 80]	–	1000 to 10000 nM	< 100 nM	10000 to 100000 nM
CN(Cc1cccc2ccccc12)c1nc(C(=O)Nc2cnoc2)c(O)c(=O)n1C [Example 15]	–	1000 to 10000 nM	< 100 nM	1000 to 10000 nM
CN(Cc1cccnc1)c1nc(C(=O)Nc2cnoc2)c(O)c(=O)n1C [Example 32]	–	1000 to 10000 nM	< 100 nM	10000 to 100000 nM
CN(c1nc(C(=O)Nc2cnoc2)c(O)c(=O)n1C)C(c1cccc(C#N)c1)c1ccccc1Cl (single isomer, unassigned) [Example 95]	–	< 1000 nM	< 100 nM	< 1000 nM
CN(Cc1ccccc1C(F)(F)F)c1nc(C(=O)Nc2cnoc2)c(O)c(=O)n1C [Example 11]	–	1000 to 10000 nM	< 100 nM	1000 to 10000 nM
CN(c1nc(C(=O)Nc2cnoc2)c(O)c(=O)n1C)C(c1ccccc1)c1ccccc1Cl (single isomer, unassigned) [Example 39]	–	< 1000 nM	< 100 nM	< 1000 nM
CN(Cc1cccc(C(F)(F)F)c1)c1nc(C(=O)Nc2cnoc2)c(O)c(=O)n1C [Example 10]	–	1000 to 10000 nM	< 100 nM	10000 to 100000 nM
